Our source for the IC50 values is patent US20070049593A1 (priority 2004, published 2007).

For this assay, the target named is T1, HCV polymerase (Hepatitis C virus genotype 1b, UniProt P26663).
T1 construct: a region encoding NS5B (J Virol 1991 March, 65(3), 1105-13, 544 amino acids after deletion of 47 amino acids on the C-terminal); 6xHis (C); made in house; host or cells: Escherichia coli
Nature of the assay: biochemical. Also on record: species or system HCV BK strain. The gist of the method:
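Recombinant HCV BK-strain NS5B (C-terminal 47 aa deleted, His6-tagged, E. coli), 0.5 μg/ml, run with 5 μg/ml in vitro-transcribed RNA template (polyU/3′X), ATP/GTP/CTP 50 μM, UTP 2 μM plus [3H]UTP, pH 7.5, 25° C, 90 min. TCA-precipitated RNA counted by scintillation; IC50 from activity with vs without compound.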

The structures appear in SMILES notation. Structures can show the parent of a compound that is named as a salt. Where two headings read alike, the source gives them in different places.

T1 sequence (P26663 2420-2963): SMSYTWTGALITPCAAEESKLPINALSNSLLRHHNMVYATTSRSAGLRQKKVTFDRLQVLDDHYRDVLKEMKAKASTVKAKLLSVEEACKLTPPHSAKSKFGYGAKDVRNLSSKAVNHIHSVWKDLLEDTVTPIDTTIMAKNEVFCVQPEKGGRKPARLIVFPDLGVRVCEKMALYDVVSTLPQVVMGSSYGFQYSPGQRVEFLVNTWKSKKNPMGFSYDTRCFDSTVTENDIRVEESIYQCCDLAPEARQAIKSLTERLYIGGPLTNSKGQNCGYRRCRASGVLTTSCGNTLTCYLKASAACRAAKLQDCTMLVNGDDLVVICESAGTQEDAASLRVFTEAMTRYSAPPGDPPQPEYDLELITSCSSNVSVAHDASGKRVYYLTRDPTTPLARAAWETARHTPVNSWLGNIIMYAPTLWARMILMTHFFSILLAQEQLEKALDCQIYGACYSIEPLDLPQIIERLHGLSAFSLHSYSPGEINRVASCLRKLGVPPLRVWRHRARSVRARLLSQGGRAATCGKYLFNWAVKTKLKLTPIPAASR

On to `CCCC1CCCN(CCN2CCn3c(c(C4CCCCC4)c4ccc(C(=O)O)cc43)-c3ccc(Cl)cc32)C1` (stereo not shown) [Example 1-267, 3-chloro-13-cyclohexyl-5-[2-(3-propylpiperidin-1-yl)ethyl]-6,7-dihydro-5H-benzo[5,6][1,4]diazepino[7,1-a]indole-10-carboxylic acid dihydrochloride], for which the IC50 is < 100 nM.
Turning to `CCCC1CCCN(CCN2CCn3c(c(C4CCCCC4)c4ccc(C(=O)O)cc43)-c3ccc(C)cc32)C1` (stereo not shown) [Example 1-268, 13-cyclohexyl-3-methyl-5-[2-(3-propylpiperidin-1-yl)ethyl]-6,7-dihydro-5H-benzo[5,6][1,4]diazepino[7,1-a]indole-10-carboxylic acid dihydrochloride], the IC50 (25° C., 90 min, [5,6-3H]UTP incorporation into RNA, read-out: HCV polymerase inhibitory activity IC50) was < 100 nM.
As to `O=C(O)c1ccc2c(C3CCCCC3)c3n(c2c1)CCN(CCCN1CCCC1)c1cc(Cl)ccc1-3` [Example 1-269, 3-chloro-13-cyclohexyl-5-[3-(pyrrolidin-1-yl)propyl]-6,7-dihydro-5H-benzo[5,6][1,4]diazepino[7,1-a]indole-10-carboxylic acid dihydrochloride], the IC50 was < 100 nM.
With `O=C(O)c1ccc2c(C3CCCCC3)c3n(c2c1)CCN(CCCN1CCCOCC1)c1cc(Cl)ccc1-3` [Example 1-270, 3-chloro-13-cyclohexyl-5-[3-(1,4-oxazepan-4-yl)propyl]-6,7-dihydro-5H-benzo[5,6][1,4]diazepino[7,1-a]indole-10-carboxylic acid dihydrochloride], the IC50 is < 100 nM.
Consider `COCC1CCCCN1CCN1CCn2c(c(C3CCCCC3)c3ccc(C(=O)O)cc32)-c2ccccc21` (stereo not shown) [Example 1-271, 13-cyclohexyl-5-[2-(2-methoxymethylpiperidin-1-yl)ethyl]-6,7-dihydro-5H-benzo[5,6][1,4]diazepino[7,1-a]indole-10-carboxylic acid dihydrochloride], for which the half-maximal inhibitory concentration (IC50) is < 100 nM.
With `CCC1CCCN(CCN2CCn3c(c(C4CCCCC4)c4ccc(C(=O)O)cc43)-c3ccc(C)cc32)C1` (stereo not shown) [Example 1-272, 13-cyclohexyl-5-[2-(3-ethylpiperidin-1-yl)ethyl]-3-methyl-6,7-dihydro-5H-benzo[5,6][1,4]diazepino[7,1-a]indole-10-carboxylic acid dihydrochloride], the IC50 is < 100 nM.
Still for that read-out and setting: the value for `CCN1CCCC(CCN2CCn3c(c(C4CCCCC4)c4ccc(C(=O)O)cc43)-c3ccc(C)cc32)C1` (stereo not shown) [Example 1-273, 13-cyclohexyl-5-[2-(1-ethylpiperidin-3-yl)ethyl]-3-methyl-6,7-dihydro-5H-benzo[5,6][1,4]diazepino[7,1-a]indole-10-carboxylic acid dihydrochloride] was < 100 nM; that for `Cc1ccc2c(c1)N(CCC1CCCN(C)C1)CCn1c-2c(C2CCCCC2)c2ccc(C(=O)O)cc21` (stereo not shown) [Example 1-274, 13-cyclohexyl-3-methyl-5-[2-(1-methylpiperidin-3-yl)ethyl]-6,7-dihydro-5H-benzo[5,6][1,4]diazepino[7,1-a]indole-10-carboxylic acid dihydrochloride] was < 100 nM; that for `Cc1ccc2c(c1)N(CCC1CCCN(C(C)C)C1)CCn1c-2c(C2CCCCC2)c2ccc(C(=O)O)cc21` (stereo not shown) [Example 1-275, 13-cyclohexyl-5-[2-(1-isopropylpiperidin-3-yl)ethyl]-3-methyl-6,7-dihydro-5H-benzo[5,6][1,4]diazepino[7,1-a]indole-10-carboxylic acid dihydrochloride] was < 100 nM.
On the same count and under the same terms, the value for `CCOc1ccc2c(c1)N(CCN1CCCCC1)CCn1c-2c(C2CCCCC2)c2ccc(C(=O)O)cc21` [Example 1-276, 13-cyclohexyl-3-ethoxy-5-[2-(piperidin-1-yl)ethyl]-6,7-dihydro-5H-benzo[5,6][1,4]diazepino[7,1-a]indole-10-carboxylic acid dihydrochloride] was < 100 nM; that for `O=C(O)c1ccc2c(C3CCCCC3)c3n(c2c1)CCN(CCN1CCCCCCC1)c1cc(Cl)ccc1-3` [Example 1-277, 5-[2-(azocan-1-yl)ethyl]-3-chloro-13-cyclohexyl-6,7-dihydro-5H-benzo[5,6][1,4]diazepino[7,1-a]indole-10-carboxylic acid dihydrochloride] was < 100 nM; that for `Cc1ccc2c(c1)N(CCN1CCCCCCC1)CCn1c-2c(C2CCCCC2)c2ccc(C(=O)O)cc21` [Example 1-278, 5-[2-(azocan-1-yl)ethyl]-13-cyclohexyl-3-methyl-6,7-dihydro-5H-benzo[5,6][1,4]diazepino[7,1-a]indole-10-carboxylic acid dihydrochloride] was < 100 nM.
On to `CC(=O)N1CCC(N(C)CCN2CCn3c(c(C4CCCCC4)c4ccc(C(=O)O)cc43)-c3ccccc32)CC1` [Example 1-279, 5-{2-[N-(1-acetylpiperidin-4-yl)-N-methylamino]ethyl}-13-cyclohexyl-6,7-dihydro-5H-benzo[5,6][1,4]diazepino[7,1-a]indole-10-carboxylic acid monohydrochloride], for which the IC50 is < 100 nM.
Turning to `CN(CCN1CCn2c(c(C3CCCCC3)c3ccc(C(=O)O)cc32)-c2ccccc21)C1CCN(S(C)(=O)=O)CC1` [Example 1-280, 13-cyclohexyl-5-{2-[N-(1-methanesulfonylpiperidin-4-yl)-N-methylamino]ethyl}-6,7-dihydro-5H-benzo[5,6][1,4]diazepino[7,1-a]indole-10-carboxylic acid], the IC50 is < 100 nM.
On the same count and under the same terms, the value for `COC(=O)N1CCC(N(C)CCN2CCn3c(c(C4CCCCC4)c4ccc(C(=O)O)cc43)-c3ccccc32)CC1` [Example 1-281, 13-cyclohexyl-5-{2-[N-(1-methoxycarbonylpiperidin-4-yl)-N-methylamino]ethyl}-6,7-dihydro-5H-benzo[5,6][1,4]diazepino[7,1-a]indole-10-carboxylic acid monohydrochloride] was < 100 nM; that for `CN1CCC(N(C)CCN2CCn3c(c(C4CCCCC4)c4ccc(C(=O)O)cc43)-c3ccccc32)CC1` [Example 1-282, 13-cyclohexyl-5-{2-[N-methyl-N-(1-methylpiperidin-4-yl)amino]ethyl}-6,7-dihydro-5H-benzo[5,6][1,4]diazepino[7,1-a]indole-10-carboxylic acid dihydrochloride] was < 100 nM; that for `CN(CCN1CCn2c(c(C3CCCCC3)c3ccc(C(=O)O)cc32)-c2ccccc21)C1CCOCC1` [Example 1-283, 13-cyclohexyl-5-{2-[N-methyl-N-(tetrahydropyran-4-yl)amino]ethyl}-6,7-dihydro-5H-benzo[5,6][1,4]diazepino[7,1-a]indole-10-carboxylic acid] was < 100 nM.
For the molecule `CN1CCC(N(C)CCN2CCn3c(c(C4CCCCC4)c4ccc(C(=O)O)cc43)-c3ccccc32)C1` (stereo not shown) [Example 1-284, 13-cyclohexyl-5-{2-[N-methyl-N-(1-methylpyrrolidin-3-yl)amino]ethyl}-6,7-dihydro-5H-benzo[5,6][1,4]diazepino[7,1-a]indole-10-carboxylic acid dihydrochloride], the IC50 is < 100 nM.
Same read-out and setting: in the case of `CN(CCN1CCn2c(c(C3CCCCC3)c3ccc(C(=O)O)cc32)-c2ccccc21)C1CCNC1` (stereo not shown) [Example 1-285, 13-cyclohexyl-5-{2-[N-methyl-N-(pyrrolidin-3-yl)amino]ethyl}-6,7-dihydro-5H-benzo[5,6][1,4]diazepino[7,1-a]indole-10-carboxylic acid dihydrochloride] it was < 100 nM.

A word on the IC50: it is the concentration that gives 50% inhibition.
